From patent publication US20040077709A1, “Neuronal death inhibitors” (DAIICHI PHARMACEUTICAL CO., LTD., priority 1999, published 2004)

Legend:
[1] = system: male mice; conditions: oral; cited from earlier work
[2] = system: EL mice (EL[s]); test: DNA fragmentation (TdT labeling) in brain sections of EL mice after oral nefiracetam; format: in vivo; conditions: EL[s] mice aged 30 weeks, 10 mg/kg oral once a day
Source text: Employed were three groups each constituting 6 mice aged 30 weeks, that is, EL mice (EL[s]) given an epileptogenic stimulus once a week and thus having a low threshold, EL mice (EL[ns]) not given an epileptogenic stimulus and free from epileptic seizure at least during observation and DDY mice as a control. Each group was compared with that consisting of 40 to 50 week old mice in order to omit the influence of aging. A section of 10 μm was fixed to a gelatin-coated sliding glass in a cryostat, followed by permeabilization with 0.1% sodium citrate and 0.1% Triton X-100 at 4° C. for 5 minutes. DNA fragmentation was detected by polymerizing a fluorescein-labeled nucleotide with the 3′-OH ends of the cleaved DNA by using terminal transferase (TdT). Reaction with an anti-fluorescein antibody conjugated with peroxidase (PD) or alkali phosphatase (AP) developed color, thereby enabling detection by an optical microscope. As a negative control, TdT(−) and as a positive control, a sample treated with DNAaseI were employed. Nefiracetam was orally administered to the test group (aged 30 weeks, EL[s]) once (10 mg/kg) a day. While thus controlling the occurrence of epileptic seizure, a relationship between the nefiracetam administration terms (1, 3, 5 and 7 days) and appearing frequency of DNA fragmentation was observed.
As a result, DNA fragmentation was detected from neither DDY mice aged 30 weeks (adult) nor those aged 40 weeks (having an influence of aging) which served as a negative control. In the EL mice (EL[s]) having epileptic seizure, whether they were aged 30 weeks or 40 weeks, DNA fragmentation was recognized from their hippocampus and parietal cortex. In the EL mice (El[ns]) free from epileptic seizure, whether they were aged 30 weeks or 40 weeks, DNA fragmentation was recognized in only a narrower region at a lower frequency than the EL[s]. In their hippocampus, no DNA fragmentation was recognized.
EL mice serve as a model of the region-specific secondary generalized epilepsy. Although having no severe tissue injury, they are known for accelerated production of free radicals in the hippocampus and parietal cortex constituting a partial complex seizure, a rise in NO and site-specific expression of the immediately early genes (c-fos, zif) during an epileptogenicity acquiring procedure.

[3] = five days after the administration, FIG. 2
[4] = single administration (one day), FIG. 1

## Cc1cccc(C)c1NC(=O)CN1CCCC1=O [nefiracetam, 2-oxo-1-pyrrolidinylacetic acid 2,6-dimethylanilide]
[1]
  acute toxicity: 2,005 mg/kg
[2]; [3]
  DNA fragmentation in the hippocampus: disappeared
  DNA fragmentation in the parietal cortex: no change
[2]; [4]
  DNA fragmentation in the hippocampus: recognized
  DNA fragmentation in the parietal cortex: recognized
